In patent US20250228765A1, “TREATING KNEE JOINT PAIN BY INJECTING RESIN[…] ULTRA LOW DOSES” (Gruenenthal GmbH, priority 2024, published 2025):

Tests used:
[1] = Human study: safety and injection site pain after intraarticular injection; assay type: in vivo; conditions: for subjects with severe adverse events: none related to investigational medicinal product; for incidence of treatment emergent adverse events: placebo 75.0%
Method: (§1) The primary objective of this study was to compare the analgesic effects of single intraarticular injections of Resiniferatoxin (100 or 400 ng) compared to placebo, at 3 and 6 months postinjection, in participants with chronic osteoarthritic knee joint pain. Secondary objectives were to evaluate the analgesic effects of Resiniferatoxin versus placebo in terms of a responder analysis (percentage of subjects achieving ≥50% or ≥70% reduction in visual analog scale pain score) and changes in Western Ontario and McMaster Universities Arthritis Index (WOMAC) total and subscale scores (pain, physical function and stiffness). Safety and injection site pain were also evaluated.
(§2) The study was conducted as a randomized, double-blind, placebo-controlled, single-dose trial of Resiniferatoxin. Eligible patients were aged 40 to 80 years with radiographic knee osteoarthritis (Kellgren-Lawrence Grade 2-4 in the last 3 years) and a baseline visual analog scale (0-100 mm) pain score ≥40 mm on motion in the target knee, with or without pain medication. 67 subjects were randomized to treatment with either Resiniferatoxin 100 ng (n=24) or 400 ng (n=23), or placebo (n=20), administered intraarticularly into the index knee. Intraarticular Ropivacaine (5 ml, 0.5%) was administered 15 mins before investigational medicinal product. Visual analog scale scores were used to evaluate pain on motion as the average of the last 2 days in a target knee between baseline and at 3 and 6 months post injection. Injection site pain was rated (visual analog scale) from baseline (−0.5 h) up to 3 h post intraarticular injections.

[2] = test system: moderate to severe pain due to osteoarthritis of the knee; conditions: cited from earlier work
[3] = Comparative study in rats: synovial fluid pharmacokinetics after intraarticular dosing; assay type: in vivo; conditions: male, rat, 9.6 ng, across the three formulations
Method: (§3) Animals: 63 male rats (21 rats per formulation; plus an additional 3 animals as a replacement). Body weight: average 263 g (236-295 g). Dose (IA): ˜36.6 ng/kg=>9.6 ng/knee as an injection of 30 μL/knee of three various formulations with concentration 320 ng/mL. PK sampling: 7 timepoints: 10 min (animals not fully conscious between dosing and sampling), 20 min, 30 min, 1 h, 1.5 h, 2 h and 4 h (one sample per rat; 3 rats per timepoint) in plasma and synovial fluid. Tissue samples: at same time points as PK samples following tissue samples: meniscus, patella, femoral head and tibial plateau.
Sampling of synovial fluid: A 0.5 ml 28G Insulin syringes (fixed needle, no hub) were filled with 100 μl of the saline/EDTA solution. The skin was removed from the joint and then the needle was inserted through the patellar tendon into the joint space. The solution was then injected into the joint space, the knee was flexed a couple/few times (all with the needle still in the joint) and then was pulled back on the plunger to collected the mix of saline/EDTA and synovial fluid. The lavage fluid was then put into a microcentrifuge tube, it was spun to pellet any cells/debris and then the supernatant was collected.

[4] = Comparative study in rats: knee tissue concentrations after intraarticular dosing; assay type: in vivo; conditions: male, rat, knee tissues, across the three formulations
Method: as §3

[5] = test system: chronic osteoarthritic knee joint pain; experiment: Randomized, double-blind, placebo-controlled single-dose human study: analgesic effect of intraarticular injection; assay type: in vivo; conditions: for mean (SD) absolute reduction of visual analog scale score, pain on motion: 6 months, VAS 0-100 mm, placebo 28.26
Method: In a human study, two pharmaceutical dosage forms according to the invention were used comprising Resiniferatoxin (100 or 400 ng) in an aqueous ethanolic solution additionally containing polysorbate 80 (Tween® 80) as surfactant, trometamol as buffer and a combination of NaCl, KCl, and CaCl2) as inorganic salts.
as §1, §2

[6] = test system: naturally-occurring canine osteoarthritis; conditions: single intraarticular injection of 10 μg; 7 dogs with osteoarthritis; cited from earlier work
[7] = single intraarticular doses 100 ng or 400 ng

## C=C(C)[C@]12C[C@@H](C)[C@@]34O[C@](Cc5ccccc5)(O[C@@H]1[C@@H]3C=C(COC(=O)Cc1ccc(O)c(OC)c1)C[C@]1(O)C(=O)C(C)=C[C@@H]41)O2 [Resiniferatoxin, 4-hydroxy-3-methoxy-benzeneacetic acid, [(2S,3aR,3bS,6aR,9aR,9bR, 10R,11aR)-3a, 3b, 6,6a, 9a,10,11,11a-octahydro-6a-hydroxy-8,10-dimethyl-11a-(1-methylethenyl)-7-oxo-2-(phenylmethyl)-7H-2,9b-epoxyazuleno[5,4-e]-1,3-benzodioxol-5-yl]methyl ester]
[1]; 100 ng group (n=24)
  subjects with severe adverse events: 2 subjects
[1]; 100 ng group
  incidence of treatment emergent adverse events: 62.5%
[1]; 400 ng group (n=23)
  subjects with severe adverse events: 3 subjects
[1]; 400 ng group
  incidence of treatment emergent adverse events: 78.3%
[1]; intraarticular, 100 or 400 ng, VAS up to 3 h post injection
  injection site pain (procedural pain) compared to placebo: generally higher
[1]; moderate-severe intensity in some subjects
  time of peak injection site pain post-injection: around 0.5 h
[1]; post-injection
  injection site pain return to baseline: ≤ 3 h
[1]; [7]
  safety profile and tolerability: good safety profile
[2]; one-time intraarticular dose 5-30 μg
  sustained pain relief (anecdotal long-term follow up): > 365 days
[2]; up to the planned highest dose of 30 μg
  safety as onetime intraarticular injection: demonstrated safety
[3]; read-out: half-life in SF (converted)
  half-life: ~1.5 h
[3]; read-out: half-life in SF (range)
  half-life: 1.07 to 1.85 h
[4]; 9.6 ng, read-out: half-life in the tissues (converted)
  half-life: ~1.5 h
[4]; other: intraarticular, 9.6 ng/knee, read-out: half-life in the tissues (converted)
  half-life: ~1.5 h
[4]; other: intraarticular, 9.6 ng/knee, read-out: half-life in the tissues (range)
  half-life: 0.895 to 3.21 h
[5]; 100 ng and 400 ng groups, at both 3 and 6 months
  reduction in WOMAC total and subscale scores (pain, physical function and stiffness) versus placebo: greater reduction
[5]; 100 ng single intraarticular injection
  mean (SD) absolute reduction of visual analog scale score, pain on motion: 33.52 (22.89)
[5]; 400 ng single intraarticular injection
  mean (SD) absolute reduction of visual analog scale score, pain on motion: 41.48 (32.57)
[5]; [7]
  analgesia evident during the follow-up period: at least 3 months
  analgesic onset after administration: within one week
[6]
  analgesic effect: significant and prolonged analgesic effect
